Test results published in patent US20260002132A1, “METHOD FOR PRODUCING RENAL COLLECTING DUCT CELLS AND PELVIC EPITHELIAL CELLS” (Kyoto University, priority 2022, published 2026).
Where two headings read alike, the source gives them in different places.

Key:
[1] = system: ureteric bud cells derived from Tet-On-ELF5-1231A3 iPS cells; format: cell-based, human; conditions: for effect on AQP2 expression in combination with IBMX: factor added together with IBMX
Procedure: Ureteric bud organoids on Day 6 were prepared from the Tet-On-ELF5-1231A3 iPS cells using the method previously described (WO2021/066076). In a 1.5 mL tube, 10 ureteric bud organoids were collected and washed twice with 500 μL PBS. 100 μL Accutase was added thereto, and the mixture was incubated for 3 minutes at 37° C., 5% CO2. The ureteric bud organoids were completely transformed into single cells by pipetting, and 900 μL DMEM/10% PBS was added thereto to count cells.
To a 24-well plate (6-well, 12-well, 48-well or 96-well plate, or 6-well, 12-well, or 24-well transwell plate may also be used), the necessary amount of suspension was collected to achieve 0.25 to 1.0×10^5 cells/cm^2, and centrifuged at 300 G for 5 minutes. The cell count was preferably 1×10^5 cells/cm^2. After removing the supernatant, cells were resuspended in a medium comprising DMEM/F12 GlutaMAX+B-27 Supplement minus vitamin A having 10% FBS, 1 μM A83-01, and 1 μM IWR-1 (renal collecting duct progenitor cell-induction medium) added thereto, to which 0.125 μg/cm^2 iMatrix-511 silk and 10 μM Y-27632 were added, and the suspension was adjusted and seeded so that each well contains 500 μL of the suspension. 0.1 μM TTNPB may be further added the medium.
The medium may further comprise 0.1 μM TTNPB, 100 nM desmopressin (dDAVP), 10 nM aldosterone, and 100 nM K252a, and preferably a medium comprising 3 agents of TTNPB, dDAVP, and aldosterone is suitable. Thereafter, the medium was replaced once every 2 days, and the induction into the principal cells was completed on Day 4.
The cultured cells were washed twice with PBS, and then, fixed with 4% PFA at 4° C. for 20 minutes. The cells were washed twice with PBS, and then, blocked using 2% normal donkey serum (MERCK)/PBT (PBS/0.25% Triton X-100, Nacalai tesque, Inc.) (blocking solution) at room temperature for 1 hour. Each primary antibody was diluted with the blocking solution at a rate of 1:200, and left to stand with samples at 4° C. for 24 hours. After washing twice with 0.25% PBT, each secondary antibody was diluted with the blocking solution at a rate of 1:500, and left to stand with samples at room temperature for 2 hours. The cells were observed using a microscope such as BZX-700 (Keyence Corporation).

[2] = system: renal collecting duct principal cell-containing organoid; experiment: Functional evaluation of renal collecting duct principal cell-containing organoids (water uptake, cystoid structure); format: cell-based, human; conditions: organoid on Day 6 of the induction
Procedure: Ureteric bud organoids on Day 6 were prepared from the Tet-On-ELF5-1231A3 iPS cells using the method previously described (WO2021/066076). The medium was removed and replaced with the renal collecting duct progenitor cell-induction medium of 100 μL/well. 0.1 μM TTNPB may be further added the medium.
3 days later, the medium was replaced with the renal collecting duct principal cell-induction medium of 100 μL/well. The medium may further comprise 0.1 μM TTNPB, 100 nM dDAVP, 10 nM aldosterone, and 100 nM K252a, and preferably a medium comprising 3 agents of TTNPB, dDAVP, and aldosterone is suitable. The medium was replaced once every 2 days, and the preparation of principal cell-containing organoids was completed on Day 6.
The functional evaluation tests were performed on the renal collecting duct principal cell-containing organoids. For the renal collecting duct principal cell-containing organoid on Day 6 of the induction, the medium was replaced with a renal collecting duct principal cell-induction medium, to which 1 μM dDAVP, or with 1 μM dDAVP and 10 μM tolvaptan were added.

[3] = system: mouse renal collecting duct principal cell lines; conditions: previously reported (Ando F. et al., Nat Commun. 2018); cited from earlier work
[4] = system: renal collecting duct principal cells; experiment: Apical-basal polarity of AQP2 in renal collecting duct principal cells, transwell culture; format: cell-based, human; conditions: 100 nM dDAVP added to the medium in the lower chamber
Procedure: Ureteric bud organoids on Day 6 were prepared from the Tet-On-ELF5-1231A3 iPS cells using the method previously described (WO2021/066076). In a 1.5 mL tube, 10 ureteric bud organoids were collected and washed twice with 500 μL PBS. 100 μL Accutase was added thereto, and the mixture was incubated for 3 minutes at 37° C., 5% CO2. The ureteric bud organoids were completely transformed into single cells by pipetting, and 900 μL […] was added thereto to count cells. To evaluate the apical-basal polarity, the cells were seeded on a Transwell 12-well plate (Corning Inc., 3460). Specifically, the necessary amount of suspension was collected to achieve 0.5 to 2×10^5 cells/cm^2, and centrifuged at 300 G for 5 minutes. The cell count was preferably 1×10^5 cells/cm^2. After removing the supernatant, cells were resuspended in the renal collecting duct progenitor cell-induction medium, to which 0.125 μg/cm^2 iMatrix-511 silk and 10 μM Y-27632 were added, and the suspension was adjusted and seeded in the upper chamber so that each well contains 300 μL of the suspension. 0.1 μM TTNPB may be further added the medium. 2 or 3 days later, the medium in the upper chamber was removed, and 300 μL renal collecting duct principal cell-induction medium was placed in the lower chamber. […]

[5] = factor added to principal cell-induction medium excluding IBMX, planar culture
[6] = 400 μM IBMX with 4 μM doxycycline in renal collecting duct progenitor cell-induction medium

Which AQP2 expression [1, 5] does the source give for `C[C@]12CCC(=O)C=C1CC[C@@H]1[C@@H]2[C@@H](O)C[C@]2(C=O)[C@@H](C(=O)CO)CC[C@@H]12` [ALD, aldosterone] here?
The AQP2 expression was “the AQP2 expression was not promoted”.

And the “effect on AQP2 expression in combination with IBMX” value (shortened to “effect on AQP2 expression”) ([1]; planar culture)?
Its value is “functioned additively with the addition of IBMX”.

What does the source list for `NC(=O)CC[C@@H]1NC(=O)[C@H](Cc2ccccc2)NC(=O)[C@H](Cc2ccc(O)cc2)NC(=O)[C@@H](N)CSSC[C@@H](C(=O)N2CCC[C@H]2C(=O)N[C@@H](CCCN=C(N)N)C(=O)NCC(N)=O)NC(=O)[C@H](CC(N)=O)NC1=O` [AVP, arginine vasopressin]?
AQP2 expression [1, 5]: the AQP2 expression was not promoted; effect on AQP2 expression in combination with IBMX ([1]; planar culture): functioned additively with the addition of IBMX

Which AQP2 expression [1, 6] does the source give for `CC(C)Cn1c(=O)n(C)c(=O)c2[nH]cnc21` [IBMX, 3-isobutyl-1-methylxanthine] here?
Its AQP2 expression is “early expressed AQP2”.

And the AVPR2 expression [1, 6]?
Its AVPR2 expression is “expressed AVPR2”.

And the AQP2 expression ([1]; IBMX added with dDAVP, or with either of AVP and dDAVP, ALD and K252a, planar culture)?
Its AQP2 expression is “the AQP2 expression was promoted”.

And the “number of AQP2-expressing cells” value ([1]; IBMX at concentrations up to 400 μM, with 4 μM doxycycline)?
Its value is “concentration-dependently increased”.

With `COC(=O)[C@@]1(O)C[C@H]2O[C@]1(C)n1c3ccccc3c3c4c(c5c6ccccc6n2c5c31)C(=O)NC4` [K252a] as the compound, how does the AQP2 expression [1, 5] read?
Its AQP2 expression is “the AQP2 expression was not promoted”.

What about the “effect on AQP2 expression” value ([1]; planar culture) of the same compound?
Its value is “functioned additively with the addition of IBMX”.

With `NC(=O)CC[C@@H]1NC(=O)[C@H](Cc2ccccc2)NC(=O)[C@H](Cc2ccc(O)cc2)NC(=O)CCSSC[C@@H](C(=O)N2CCC[C@H]2C(=O)N[C@H](CCCN=C(N)N)C(=O)NCC(N)=O)NC(=O)[C@H](CC(N)=O)NC1=O` [dDAVP, 1-desamino-8-D-arginine vasopressin] as the compound, how does the “effect on AQP2 expression” value ([1]; planar culture) read?
Its value is “functioned additively with the addition of IBMX”.

What about the “water uptake and cystoid structure formation” value ([2]; 1 μM dDAVP) of the same compound?
Its value is “water uptake was promoted from the next day, and a cystoid structure was formed”.

And the “AQP2 expression and apical polarization” value [3]?
The value was “promotes AQP2 expression and causes apical polarization”.

And the “polarization of AQP2 expression” value [4]?
The value was “increase in polarization of AQP2 expression to the contralateral side”.

With `Cc1ccccc1C(=O)Nc1ccc(C(=O)N2CCCC(O)c3cc(Cl)ccc32)c(C)c1` (stereo not drawn) [tolvaptan] as the compound, how does the “formation of a cystoid structure” value ([2]; 10 μM tolvaptan together with 1 μM dDAVP) read?
The value was “the formation of a cystoid structure was suppressed”.
